According to US8058243B2, “Method for treating a brain cancer with ifenprodil” (HSC Research and Development Limited Partnership, priority 2006, dated 2011):
Where a name gives a salt, the structure may show the parent alone. Read-outs that look alike come from different tables or passages of the source.

Test system: murine neural precursor cells (neurosphere cultures)
Experiment: HTS of LOPAC library against secondary neurosphere cultures, MTT proliferation assay at 3 μM, day 7 (z score, P value)
Type: cell-based, mouse
[1] = yes/no: significantly inhibited neurosphere proliferation (P<0.01) in primary screen
[2] = LOPAC library screen at 3 μM, secondary neurosphere cultures, MTT
[3] = LOPAC screen, neurosphere MTT proliferation, 3 μM, day 7
[4] = LOPAC primary screen, neurosphere MTT proliferation, 3 μM, day 7
[5] = LOPAC library screen, 3 μM, MTT, secondary neurosphere cultures, day 7
[6] = yes/no: significantly inhibited neurosphere proliferation in primary screen
[7] = LOPAC library screen, 3 μM, MTT, neurosphere cultures
[8] = yes/no: significantly inhibited neurosphere proliferation (P<0.01) in the primary screen
[9] = primary LOPAC screen, 3 μM, MTT, neurosphere proliferation
[10] = yes/no: significantly inhibited neurosphere proliferation in the primary screen

Q: `O=c1[nH]c(=O)n([C@H]2C[C@H](O)[C@@H](CO)O2)cc1/C=C/Br` [(E)-5-(2-Bromovinyl)-2′-deoxyuridine] was tested. Which “Z Score” value (168 h, 3 µM) did it give?
A: −2.123

Q: And the Z score (168 h, 3 µM)?
A: −2.123

Q: What about the Activity [1] of the same compound?
A: no

Q: `CC(C[N+](C)(C)C)OC(N)=O` (stereo not shown) [Bethanechol chloride] was tested. Which “Z Score” value [2] did it give?
A: −0.6493

Q: And the Z score [3]?
A: −0.649

Q: What about the Activity [1] of the same compound?
A: no

Q: How did the “Z Score” value turn out when `CCCN(CC1CC1)c1nc(C)nc(Nc2c(Cl)cc(Cl)cc2Cl)c1Cl` [NBI 27914] was run?
A: 0.1345

Q: What about the Z score [4] of the same compound?
A: 0.134

Q: And the Activity [1]?
A: no

Q: How did the “Z Score” value [5] turn out when `O=c1c2ccccc2[nH]c(=S)n1CCN1CCC(=C(c2ccc(F)cc2)c2ccc(F)cc2)CC1` [Diacylglycerol Kinase Inhibitor II] was run?
A: −1.39

Q: And the Z score [3]?
A: −1.390

Q: And the Activity [1]?
A: no

Q: `Cl.NCC#Cc1ccccc1` [3-Phenylpropargylamine hydrochloride] was tested. Which “Z Score” value did it give?
A: −2.043

Q: And the Z score [4]?
A: −2.043

Q: What about the Activity [6] of the same compound?
A: no

Q: What does the source list for `C[C@H](N)CN1CCc2ccc(Br)cc21.C[C@H](N)CN1CCc2ccc(Br)cc21.O=C(O)/C=C/C(=O)O` [VER-3323 hemifumarate salt]?
A: Z Score: −0.7614; Z score [4]: −0.761; Activity [1]: no

Q: Which results are given for `O=C(O)/C=C\C(=O)O.O=[N+]([O-])c1ccc2nc(N3CCNCC3)ccc2c1` [Quipazine, 6-nitro-, maleate]?
A: Z Score [7]: 0.9782; Z score [4]: 0.978; Activity [6]: no

Q: Which results are given for `O=C(c1ccc2c(c1)OCCO2)N1CCCCC1` [CX 546]?
A: Z Score: −1.05; Z score [3]: −1.050; Activity [1]: no

Q: `N[C@@H]1C[C@H]1c1ccccc1` [Tranylcypromine hydrochloride] was tested. Which “Z Score” value [5] did it give?
A: −1.441

Q: And the Z score [4]?
A: −1.441

Q: And the Activity [6]?
A: no

Q: What does the source list for `CO/N=C(\C(=O)N[C@@H]1C(=O)N2C(C(=O)O)=C(COC(C)=O)CS[C@H]12)c1csc(N)n1` [Cefotaxime sodium]?
A: Z Score [2]: −1.096; Z score [4]: −1.096; Activity [8]: no

Q: S(−)-Atenolol was tested. Which “Z Score” value [7] did it give?
A: 0.617

Q: And the Z score [9]?
A: 0.617

Q: And the Activity [10]?
A: no

Q: What does the source list for `C[C@@H]1O[C@@H](O[C@H]2C[C@@H](O)[C@]3(CO)[C@H]4[C@H](O)C[C@]5(C)[C@@H](C6=CC(=O)OC6)CC[C@]5(O)[C@@H]4CC[C@]3(O)C2)[C@H](O)[C@H](O)[C@H]1O` [Ouabain]?
A: Z Score [5]: −1.568; Z score [4]: −1.568; Activity [6]: no

Q: With `CC(C)NC(C)Cc1ccc(I)cc1` (stereo not shown) [Iofetamine hydrochloride] as the compound, how does the “Z Score” value read?
A: −0.7588

Q: What about the Z score [4] of the same compound?
A: −0.759

Q: For `N[C@H](C(=O)O)c1cc(O)no1` (racemic) [(±)-Ibotenic acid], which Z score [4] is on record?
A: −1.650

Q: What about the Activity [1] of the same compound?
A: no

Q: Which results are given for `COC1(C2=NCCN2)COc2ccccc2O1.Cl` (stereo not shown) [RX 821002 hydrochloride]?
A: Z Score: 0.249; Z score [4]: 0.249; Activity [6]: no

Q: With `CCCN1CCC[C@@H](c2cccc(O)c2)C1.Cl` [S(−)-3PPP hydrochloride] as the compound, how does the “Z Score” value read?
A: −0.4205

Q: And the Z score [4]?
A: −0.421

Q: What about the Activity [6] of the same compound?
A: no

Q: `CNc1ccc2oc(C[C@H]3O[C@@]4(CC[C@H]3C)O[C@H]([C@H](C)C(=O)c3ccc[nH]3)[C@H](C)C[C@H]4C)nc2c1C(=O)O` [Calcimycin] was tested. Which “Z Score” value did it give?
A: 2.172

Q: What about the Z score [3] of the same compound?
A: 2.172

Q: And the Activity [1]?
A: no

Q: `C[C@]12CCC(=O)C(O)=C1CC[C@@H]1[C@@H]2CC[C@]2(C)C(=O)CC[C@@H]12` [4-Androsten-4-ol-3,17-dione] was tested. Which “Z Score” value did it give?
A: 0.1944

Q: What about the Z score [9] of the same compound?
A: 0.194

Q: And the Activity [10]?
A: no

Q: Which “Z Score” value [5] does the source give for `COC(=O)[C@@H](N)CCCN=C(N)N[N+](=O)[O-].Cl` here?
A: −1.411

Q: And the Z score [4]?
A: −1.411

Q: And the Activity (yes = significantly inhibited neurosphere proliferation (P<0.01) in the primary screen)?
A: no

Q: For `N=C(N)NC(=O)c1nc(Cl)c(N)nc1N` [Amiloride hydrochloride], which “Z Score” value [2] is on record?
A: −0.7992

Q: What about the Z score [4] of the same compound?
A: −0.799

Q: What about the Activity [8] of the same compound?
A: no

Q: Which results are given for `CN(C)c1nc(N(C)C)nc(N(C)C)n1` [Altretamine]?
A: Z Score [5]: −1.322; Z score [9]: −1.322; Activity [10]: no
